This passage reports Ki results from patent publication US7205403B2, “8-Heteroaryl xanthine adenosine A2B receptor antagonists” (King Pharmaceuticals Research and Development, Inc., priority 2002, dated 2007).

Structures are written as SMILES.

Test [1] deals with T1, human A3 adenosine receptor (Homo sapiens, UniProt P0DMS8).
T1 construct: expressed in transfected cells; host or cells: CHO cells (membranes)
T1 sequence (P0DMS8 1-318): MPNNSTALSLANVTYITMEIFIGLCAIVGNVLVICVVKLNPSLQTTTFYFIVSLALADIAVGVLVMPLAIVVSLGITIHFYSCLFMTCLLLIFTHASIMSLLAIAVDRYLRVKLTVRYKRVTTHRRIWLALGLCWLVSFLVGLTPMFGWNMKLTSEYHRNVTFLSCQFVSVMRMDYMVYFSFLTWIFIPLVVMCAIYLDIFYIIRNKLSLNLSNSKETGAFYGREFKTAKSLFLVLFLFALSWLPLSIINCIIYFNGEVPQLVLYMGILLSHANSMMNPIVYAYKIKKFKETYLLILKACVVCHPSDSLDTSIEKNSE
The test can be described thus: [3H]MRE3008F20 binding to human A3 receptors expressed in CHO cells. On the procedure: (§1) The cells were grown adherently and maintained in Dulbecco's modified Eagle's medium with nutrient mixture F12 without nucleosides at 37° C. in 5% CO2/95% air. The cells were washed with phosphate-buffered saline and scraped off flasks in ice cold hypotonic buffer ([…] Tris HCl, 2 mM EDTA, pH 7.4). The cell suspension was homogenized with a Polytron and the homogenate was centrifuged for 30 minutes at 48,000 g. The resultant membrane pellet was re-suspended in 50 mM Tris HCl buffer at pH 7.4 for A1 adenosine receptors; in 50 mM Tris HCl 10 mM MgCl, at pH 7.4 for A2A adenosine receptors; in 50 mM Tris HCl, 10 mM MgCl2, 1 mM EDTA, at pH 7.4 for A3 adenosine receptors and were utilized for binding assays.
Binding of [^3H]-MRE3008-F20 to CHO cells transfected with the human recombinant A3 adenosine receptors was performed according to Varani et al., 2000. Competition experiments were carried out in duplicate in a final volume of 250 μl in test tubes containing 1 nM [^3H]-MRE3008-F20, 50 mM Tris HCl buffer, […] MgCl2, pH 7.4 and 100 μl of diluted membranes (50 μg of protein/assay) and at least 6–8 different concentrations of examined ligands for 120 minutes at 4° C.
(§2) The filter bound radioactivity was counted on Top Count (efficiency 57%) with Micro-Scint 20.
(§3) The filter bound radioactivity was counted on a Top Count brand Microplate Scintillation Counter (efficiency 57%) with Micro-Scint 20. […] Inhibitory binding constant. […] Results and Discussion

Test [2] deals with T2, human A2B adenosine receptor (Homo sapiens, UniProt P29275).
T2 sequence (P29275 1-332): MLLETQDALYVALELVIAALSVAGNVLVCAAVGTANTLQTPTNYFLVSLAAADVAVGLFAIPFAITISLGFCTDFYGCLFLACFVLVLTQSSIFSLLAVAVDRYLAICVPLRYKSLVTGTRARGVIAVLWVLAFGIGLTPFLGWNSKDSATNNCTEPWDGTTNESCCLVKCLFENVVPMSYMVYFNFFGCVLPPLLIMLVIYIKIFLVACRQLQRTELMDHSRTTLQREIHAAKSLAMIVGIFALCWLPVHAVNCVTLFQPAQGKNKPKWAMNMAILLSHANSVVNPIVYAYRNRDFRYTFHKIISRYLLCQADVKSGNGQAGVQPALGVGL
As to the kind of experiment: [3H]DPCPX binding to human A2B receptors expressed in HEK293 cells. Details: host or cells: HEK 293 cells (membranes). As to conditions: geometric mean (95% confidence interval); >1000 = no appreciable binding; read-out: Ki, [3H]DPCPX binding to human A2B receptors expressed in HEK293 cells. The protocol: HEK 293 cells transfected with the human recombinant A2B adenosine receptor were obtained from Receptor Biology, Inc. (Beltsville, Md. USA).
Binding of 1 [^3H]-DPCPX to HEK 293 cells transfected with the human recombinant A2B adenosine receptors was performed according to the method described by Varani et al., 2000. In particular, assays were carried out for 60 minutes at 25° C. in 100 μl of […] Tris HCl buffer, […] MgCl2, 1 mM EDTA, 0.1 mM benzamidine pH 7.4, 2 IU/ml adenosine deaminase containing 40 nM [^3H]-DPCPX, diluted membranes (20 μg of protein/assay) and at least 6–8 different concentration of tested compounds.
as §2, §3

Test [3] addresses T3, human A2A adenosine receptor (Homo sapiens, UniProt P29274).
T3 construct: expressed in transfected cells; host or cells: CHO cells (membranes)
As to the kind of experiment: [3H]ZM241385 binding to human A2A receptors expressed in CHO cells. As to conditions: read-out: Ki, [3H]ZM241385 binding to human A2A receptors expressed in CHO cells. On the procedure: as §1, §2, §3

T3 sequence (P29274 whole entry): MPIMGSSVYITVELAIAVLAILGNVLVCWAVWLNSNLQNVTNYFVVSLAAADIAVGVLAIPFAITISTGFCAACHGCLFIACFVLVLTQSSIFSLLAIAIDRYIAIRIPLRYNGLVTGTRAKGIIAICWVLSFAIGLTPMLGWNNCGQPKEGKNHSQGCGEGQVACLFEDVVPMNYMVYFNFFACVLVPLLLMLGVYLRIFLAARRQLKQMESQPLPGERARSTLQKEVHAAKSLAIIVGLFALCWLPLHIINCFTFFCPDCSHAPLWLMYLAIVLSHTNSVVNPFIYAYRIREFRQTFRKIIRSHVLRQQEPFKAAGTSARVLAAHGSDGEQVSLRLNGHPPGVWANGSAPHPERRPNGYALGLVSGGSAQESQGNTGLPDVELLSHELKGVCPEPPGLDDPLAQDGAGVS

For the molecule `CCCn1c(=O)c2[nH]c(-c3ccc(OCC(=O)Nc4ccc(I)cc4)nc3)nc2n(CCC)c1=O` [AS81, 1,3-di-n-propyl-8-{6-[(4-iodo-phenylcarbamoyl)-methoxy]-pyridin-3-yl}-xanthine], the Ki (usually the dissociation constant of the complex between target and ligand, obtained from inhibition or displacement) is greater than 1000 nM in test [1], 108 nM in test [2] and greater than 1000 nM in test [3].
Regarding `CCCn1c(=O)c2[nH]c(-c3cc(NC(=O)Cc4ccc(N(C)C)cc4)nn3C)nc2n(CCC)c1=O` [AS26, N-[5-(2,6-dioxo-1,3-dipropyl-2,3,6,9-tetrahydro-1H-purin-8-yl)-1-methyl-1H-pyrazol-3-yl]-2-[4-(N,N-dimethylamino)phenyl]acetamide], the figures for the Ki in test [1], in test [2] and in test [3] were greater than 1000 nM, 1630 nM and greater than 1000 nM, respectively.
With `CCCn1c(=O)c2[nH]c(-c3cc(OCC(=O)Nc4ccc(OC)c(OC)c4)no3)nc2n(CCC)c1=O` [AS76, 1,3-di-n-propyl-8-{3-[(3,4-dimethoxy-phenylcarbamoyl)-methoxy]-isoxazol-5-yl}-xanthine], the values for the Ki in test [1], in test [2] and in test [3] were greater than 1000 nM, 51 nM and greater than 1000 nM, respectively.
Consider `CCCn1c(=O)c2[nH]c(-c3cc(NC(=O)[C@H](C)c4ccccc4)nn3C)nc2n(CCC)c1=O` [AS19, (2R)-N-[5-(2,6-dioxo-1,3-dipropyl-2,3,6,7-tetrahydro-1H-purin-8-yl)-1-methyl-1H-pyrazol-3-yl]-2-phenylpropanamide], for which the Ki in test [1], in test [2] and in test [3] was greater than 1000 nM throughout.
Regarding `CCCn1c(=O)c2[nH]c(-c3cc(NC(=O)Cc4ccc(CC(C)C)cc4)nn3C)nc2n(CCC)c1=O` [AS14, N-[5-(2,6-dioxo-1,3-dipropyl-2,3,6,9-tetrahydro-1H-purin-8-yl)-1-methyl-1H-pyrazol-3-yl]-2-(4-isobutylphenyl)acetamide], the Ki in test [1], in test [2] and in test [3] was greater than 1000 nM throughout.
Turning to `CCCn1c(=O)c2[nH]c(-c3cc(OCC(=O)Nc4ccc(N5CCOCC5)cc4)nn3C)nc2n(CCC)c1=O` [AS93, 1,3-di-n-propyl-8-{5-[(4-(morpholine-4-yl)-phenylcarbamoyl)-methoxy]-2-methyl-2H-pyrazole-3-yl}-xanthine], the inhibitory constant (Ki) is greater than 1000 nM in test [1], 86 nM in test [2] and greater than 1000 nM in test [3].
For the molecule `CCCn1c(=O)c2[nH]c(-c3cc(NC(=O)Cc4ccc(O)c(OC)c4)nn3C)nc2n(CCC)c1=O` [AS58, N-[5-(2,6-dioxo-1,3-dipropyl-2,3,6,9-tetrahydro-1H-purin-8-yl)-1-methyl-1H-pyrazol-3-yl]-2-(4-hydroxy-3-methoxyphenyl)acetamide], the results for the Ki in test [1], in test [2] and in test [3] were greater than 1000 nM, 342 nM and 1760 nM, respectively.
The corresponding values for `CCCn1c(=O)c2[nH]c(-c3cc(NC(=O)CCC(=O)O)nn3C)nc2n(CCC)c1=O` [AS8, 4-{[5-(1,3-dipropyl-2,6-dioxo-2,3,6,7-tetrahydro-1H-purin-8-yl)-1-methyl-1H-pyrazol-3-yl]amino}-4-oxobutanoic acid] are greater than 1000 nM, greater than 1000 nM and greater than 1000 nM.
For `CCCn1c(=O)c2[nH]c(-c3cc(OCC(=O)Nc4ccc(C(=O)OCC)cc4)nn3C)nc2n(CCC)c1=O` [AS94, 1,3-di-n-propyl-8-{5-[(4-(ethoxycarbonyl)-phenylcarbamoyl)-methoxy]-2-methyl-2H-pyrazole-3-yl}-xanthine] the same measures were greater than 1000 nM, 32 nM and greater than 1000 nM.
For `CCCn1c(=O)c2[nH]c(-c3cc(OCC(=O)Nc4ccc(OC)cc4)no3)nc2n(CCC)c1=O` [AS75, 1,3-di-n-propyl-8-{3-[(4-methoxy-phenylcarbamoyl)-methoxy]-isoxazol-5-yl}-xanthine] the same measures were greater than 1000 nM, 53 nM and greater than 1000 nM.
For `CCCn1c(=O)c2[nH]c(-c3ccc(OCC(=O)Nc4ccc(I)cc4)nn3)nc2n(CCC)c1=O` [AS85, 1,3-di-n-propyl-8-{6-[(4-iodo-phenylcarbamoyl)-methoxy]-pyridazin-3-yl}-xanthine], the Ki in test [1], in test [2] and in test [3] was greater than 1000 nM throughout.
For the molecule `CCCn1c(=O)c2[nH]c(-c3cc(OCC(=O)Nc4ccc(OC)c(OC)c4)nn3C)nc2n(CCC)c1=O` [AS101, 1,3-di-n-propyl-8-{5-[(3,4-dimethoxy-phenylcarbamoyl)-methoxy]-2-methyl-2H-pyrazole-3-yl}-xanthine], the Ki in test [1] is greater than 1000 nM; in test [2], 12 nM; in test [3], greater than 1000 nM.
Regarding `CCCn1c(=O)c2[nH]c(-c3cc(C(=O)O)n(C)n3)nc2n(CCC)c1=O` [AS1, 1,3-di-n-propyl-8-(1-methyl-5-carboxy-1-H-pyrazol-3-yl)-xanthine], the Ki in test [1], in test [2] and in test [3] was greater than 1000 nM in each case.
Take `CCCn1c(=O)c2[nH]c(-c3cc(OCC(=O)N4CCN(c5ccc(F)cc5)CC4)nn3C)nc2n(CCC)c1=O` [AS72, 8-(5-{2-[4-(4-Fluoro-phenyl)-piperazin-1-yl]-2-oxo-ethoxy}-2-methyl-2H-pyrazol-3-yl)-1,3-dipropyl-3,7-dihydro-purine-2,6-dione]: the values for the Ki in test [1], in test [2] and in test [3] were greater than 1000 nM, 55 nM and greater than 1000 nM, respectively.
As for `CCCn1c(=O)c2[nH]c(-c3cc(OCC(=O)Nc4ccc(F)cc4)no3)nc2n(CCC)c1=O` [AS73, 1,3-di-n-propyl-8-{3-[(4-fluoro-phenylcarbamoyl)-methoxy]-isoxazol-5-yl}-xanthine], the Ki in test [1] was greater than 1000 nM; in test [2], 70 nM; in test [3], greater than 1000 nM.
Take `Cn1nc(NC(=O)Cc2ccccc2)cc1-c1nc2c([nH]1)c(=O)n(C)c(=O)n2C` [AS40, N-[5-(2,6-dioxo-1,3-dimethyl-2,3,6,9-tetrahydro-1H-purin-8-yl)-1-methyl-1H-pyrazol-3-yl]-2-phenylacetamide]: the values for the Ki in test [1], in test [2] and in test [3] were greater than 1000 nM, 569 nM and greater than 1000 nM, respectively.
Consider `C=CCn1c(=O)c2[nH]c(-c3cc(OCC(=O)N4CCN(c5ccccc5)CC4)nn3C)nc2n(CC=C)c1=O` [AS96, 1,3-di-allyl-8-{5-[2-oxo-2-(4-phenyl-piperazin-1-yl)-ethoxy]-2-methyl-2H-pyrazole-3-yl}-xanthine], for which the figures for the Ki in test [1], in test [2] and in test [3] were greater than 1000 nM, 24 nM and greater than 1000 nM, respectively.
As to `CCCn1c(=O)c2[nH]c(-c3cc(NC(=O)[C@@H](C)c4ccccc4)nn3C)nc2n(CCC)c1=O` [AS18, (2S)-N-[5-(2,6-dioxo-1,3-dipropyl-2,3,6,7-tetrahydro-1H-purin-8-yl)-1-methyl-1H-pyrazol-3-yl]-2-phenylpropanamide], the Ki in test [1], in test [2] and in test [3] was greater than 1000 nM each time.
On to `CCCn1c(=O)c2[nH]c(-c3cc(OCC(=O)Nc4ccc(C(=O)O)cc4)nn3C)nc2n(CCC)c1=O` [AS95, 1,3-di-n-propyl-8-{5-[(4-carboxy-phenylcarbamoyl)-methoxy]-2-methyl-2H-pyrazole-3-yl}-xanthine], for which the Ki in test [1] was greater than 1000 nM; in test [2], 36 nM; in test [3], greater than 1000 nM.
